This note sets out measurements from patent US12312359B2 (Vitae Pharmaceuticals, LLC, priority 2016, dated 2025).

Assay [1] relates to human acute monocytic leukemia cell line MV-4-11. In words: Assay 2: cell proliferation assay (ATP quantitation, CellTiter-Glo), MV-4-11. The class given is cell-based. The settings on record: MV-4-11 cells. Summed up:
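MV-4-11 cells, 1.67×10^4 per well in medium with 10% FBS, were exposed to compound for 72 h at 37° C., 5% CO2; HL-60 cells served as toxicity control. Proliferation read as ATP content by CellTiter-Glo luminescence.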
On the technique in general: ATP-based viability assays read luminescence as a measure of living cells.

Assay [2] addresses T1, biotinylated wild-type menin and MLL-AF9 fusion protein (menin/MLL binding) (Homo sapiens, UniProt O00255).
T1 construct: made in house; host or cells: menin: E. coli; MLL-AF9-FLAG: HEK293 cells, used as cleared lysate
T1 sequence (O00255 1-610): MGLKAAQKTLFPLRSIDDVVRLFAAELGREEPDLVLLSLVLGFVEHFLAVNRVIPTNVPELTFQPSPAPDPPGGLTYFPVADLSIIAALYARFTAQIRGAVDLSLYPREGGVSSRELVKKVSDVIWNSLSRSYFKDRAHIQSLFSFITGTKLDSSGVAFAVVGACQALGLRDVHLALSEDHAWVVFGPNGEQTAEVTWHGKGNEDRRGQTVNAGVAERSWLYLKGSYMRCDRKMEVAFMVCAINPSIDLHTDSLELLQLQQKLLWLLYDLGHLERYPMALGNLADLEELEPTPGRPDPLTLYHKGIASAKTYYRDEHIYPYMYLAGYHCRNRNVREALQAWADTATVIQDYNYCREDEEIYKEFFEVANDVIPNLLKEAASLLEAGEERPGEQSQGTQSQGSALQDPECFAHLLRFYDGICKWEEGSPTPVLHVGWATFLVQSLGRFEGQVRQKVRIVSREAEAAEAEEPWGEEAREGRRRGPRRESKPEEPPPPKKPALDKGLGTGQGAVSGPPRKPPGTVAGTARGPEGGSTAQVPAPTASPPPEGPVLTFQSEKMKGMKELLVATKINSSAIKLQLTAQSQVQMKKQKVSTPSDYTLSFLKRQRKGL
In words: Assay 1: menin/MLL binding AlphaLISA assay, wild-type menin. As to conditions: Table 30; column head does not say wild-type or mutated menin. Summed up: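 Compound was preincubated 30 min at room temperature with biotinylated menin (5 nM) and MLL-AF9-FLAG lysate from HEK293 cells, pH 7.4 buffer with 5% DMSO and DTT. Bead-based Alpha signal after 60 min with streptavidin donor and anti-FLAG acceptor beads; four-parameter logistic fit gave IC50.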

As a reminder, the EC50 is the concentration at which the effect is half-maximal. The term IC50 denotes the concentration that inhibits the measured activity by half. A lower IC50 goes with inhibition by little substance. As to `CC(C)c1ncncc1-c1cc(F)ccc1Oc1cncnc1N1CC2(CC(NCC3CCCCC3)CO2)C1` (stereo not shown) [Example 184, N-(cyclohexylmethyl)-2-(5-(4-fluoro-2-(4-isopropylpyrimidin-5-yl)phenoxy)pyrimidin-4-yl)-5-oxa-2-azaspiro[3.4]octan-7-amine], the EC50 in assay [1] (Homo sapiens, MV4-11, 72 h) lay within 100 to 1000 nM. The IC50 in assay [2] is under 100 nM.
For `CC(C)C(=O)N(CCO)c1cc(F)ccc1Oc1cncnc1N1CCC2(CCN(Cc3ccc4[nH]c(=O)[nH]c4c3)C2)C1` (stereo not shown) [Example 185, N-(5-fluoro-2-((4-(7-((2-oxo-2,3-dihydro-1H-benzo[d]imidazol-5-yl)methyl)-2,7-diazaspiro[4.4]nonan-2-yl)pyrimidin-5-yl)oxy)phenyl)-N-(2-hydroxyethyl)iso-butyramide] the same measures were 100 to 1000 nM and under 100 nM.
For `CCN(C(=O)C(C)C)c1cc(F)ccc1Oc1cncnc1N1CCC2(CCN(Cc3ccc4[nH]c(=O)[nH]c4c3)C2)C1` (stereo not shown) [Example 186, N-ethyl-N-(5-fluoro-2-((4-(7-((2-oxo-2,3-dihydro-1H-benzo[d]imidazol-5-yl)methyl)-2,7-diazaspiro[4.4]nonan-2-yl)pyrimidin-5-yl)oxy)phenyl) isobutyramide] the same measures were under 100 nM and under 100 nM.
Regarding `CC(C)C(=O)N(CC(F)(F)F)c1cc(F)ccc1Oc1cncnc1N1CCC2(CCN(Cc3ccc4[nH]c(=O)[nH]c4c3)C2)C1` (stereo not shown) [Example 187, N-(5-fluoro-2-((4-(7-((2-oxo-2,3-dihydro-1H-benzo[d]imidazol-5-yl)methyl)-2,7-diazaspiro[4.4]nonan-2-yl)pyrimidin-5-yl)oxy)phenyl)-N-(2,2,2-trifluoroethyl)iso-butyramide], the EC50 in assay [1] (Homo sapiens, MV4-11, 72 h) is under 100 nM. In assay [2], this compound gave an IC50 of under 100 nM.
In assay [1] (Homo sapiens, MV4-11, 72 h), `CC(=O)N[C@H]1CC[C@H](CN2CCC3(CCN(c4ncncc4Oc4ccc(F)cc4-c4ccc(C#N)cc4C4CC4)C3)C2)CC1` (stereo partly shown) [Example 188, N-((1r,4r)-4-((7-(5-((4′-cyano-2′-cyclopropyl-5-fluoro-[1,1′-biphenyl]-2-yl)oxy)pyrimidin-4-yl)-2,7-diazaspiro[4.4]nonan-2-yl)methyl)cyclohexyl) acetamide] gave an EC50 of 100 to 1000 nM. Moreover, in assay [2], the IC50 was under 100 nM.
For `CC(C)(C)OC(=O)N[C@H]1CC[C@H](CCN2CC3(C2)CN(c2ncncc2Oc2ccc(F)cc2-c2ccc(C#N)cc2C2CC2)C3)CC1` [Example 189, tert-butyl ((1r,4r)-4-(2-(6-(5-((4′-cyano-2′-cyclopropyl-5-fluoro-[1,1′-biphenyl]-2-yl)oxy)pyrimidin-4-yl)-2,6-diazaspiro[3.3]heptan-2-yl)ethyl)cyclohexyl) carbamate] the same measures were 100 to 1000 nM and under 100 nM.
Consider `CC(C)c1scnc1-c1cc(F)ccc1Oc1cncnc1N1CCC2(CCN(Cc3ccc4[nH]c(=O)[nH]c4c3)C2)C1` (stereo not shown) [Example 190, 5-((7-(5-(4-fluoro-2-(5-isopropylthiazol-4-yl)phenoxy)pyrimidin-4-yl)-2,7-diazaspiro[4.4]nonan-2-yl)methyl)-1,3-dihydro-2H-benzo[d]imidazol-2-one], for which, in assay [1] (Homo sapiens, MV4-11, 72 h), the EC50 is under 100 nM. This compound gave an IC50 in assay [2] of under 100 nM.
In assay [1] (Homo sapiens, MV4-11, 72 h), `CC(=O)N[C@H]1CC[C@@H](CN2CCC3(CCN(c4ncncc4Oc4ccc(F)cc4-c4ccc(C#N)cc4C4CC4)C3)C2)CC1` (stereo partly shown) [Example 190A, N-((1s,4s)-4-((7-(5-((4′-cyano-2′-cyclopropyl-5-fluoro-[1,1′-biphenyl]-2-yl)oxy)pyrimidin-4-yl)-2,7-diazaspiro[4.4]nonan-2-yl)methyl)cyclohexyl) acetamide] yielded an EC50 of 100 to 1000 nM. Moreover, the IC50 in assay [2] is under 100 nM.
As to `CCn1c(=O)[nH]c2cc(CN3CCC4(CCN(c5ncncc5Oc5ccc(F)cc5-c5ccc(C#N)cc5C5CC5)C4)C3)ccc21` (stereo not shown) [Example 191, 2-cyclopropyl-2′-((4-(7-((1-ethyl-2-oxo-2,3-dihydro-1H-benzo[d]imidazol-5-yl)methyl)-2,7-diazaspiro[4.4]nonan-2-yl)pyrimidin-5-yl)oxy)-5′-fluoro-[1,1′-biphenyl]-4-carbonitrile], the EC50 in assay [1] (Homo sapiens, MV4-11, 72 h) was under 100 nM. In assay [2], this compound had an IC50 of under 100 nM.
On to `N#Cc1ccc2c(CN3CCC4(CCN(c5ncncc5Oc5ccc(F)cc5OC5CCCC5)C4)C3)c[nH]c2c1` (stereo not shown) [Example 192, 3-((7-(5-(2-(cyclopentyloxy)-4-fluorophenoxy)pyrimidin-4-yl)-2,7-diazaspiro[4.4]nonan-2-yl)methyl)-1H-indole-6-carbonitrile], for which the EC50 in assay [1] (Homo sapiens, MV4-11, 72 h) was in the range of 100 to 1000 nM. The same compound gave an IC50 in assay [2] of under 100 nM.
For `CC1(C)C(=O)Nc2cc(CN3CCC4(CCN(c5ncncc5Oc5ccc(F)cc5OC5CCCC5)C4)C3)ccc21` (stereo not shown) [Example 193, 6-((7-(5-(2-(cyclopentyloxy)-4-fluorophenoxy)pyrimidin-4-yl)-2,7-diazaspiro[4.4]nonan-2-yl)methyl)-3,3-dimethylindolin-2-one] the same measures were under 100 nM and under 100 nM.
Regarding `CC(C)N(C)C(=O)c1cc(F)ccc1Oc1cncnc1N1CCC2(CCN(Cc3c[nH]c4cc(C#N)ccc34)C2)C1` (stereo not shown) [Example 194, 2-((4-(7-((6-cyano-1H-indol-3-yl)methyl)-2,7-diazaspiro[4.4]nonan-2-yl)pyrimidin-5-yl)oxy)-5-fluoro-N-isopropyl-N-methylbenzamide], the EC50 in assay [1] (Homo sapiens, MV4-11, 72 h) was 100 to 1000 nM. The IC50 in assay [2] is under 100 nM.
In turn, `N#Cc1ccc(-c2cc(F)ccc2Oc2cncnc2N2CCC3(CCN(Cc4ccc(N5CCCC5=O)cc4)C3)C2)c(C2CC2)c1` (stereo not shown) [Example 195, 2-cyclopropyl-5′-fluoro-2′-((4-(7-(4-(2-oxopyrrolidin-1-yl)benzyl)-2,7-diazaspiro [4.4]nonan-2-yl)pyrimidin-5-yl)oxy)-[1,1′-biphenyl]-4-carbonitrile] returned an EC50 in assay [1] (Homo sapiens, MV4-11, 72 h) of 100 to 1000 nM. In assay [2], this compound returned an IC50 of under 100 nM.
For the compound `N#Cc1ccc(-c2cc(F)ccc2Oc2cncnc2N2CCC3(CCN(Cc4ccc5c(c4)NC(=O)C5)C3)C2)c(C2CC2)c1` (stereo not shown) [Example 196, 2-cyclopropyl-5′-fluoro-2′-((4-(7-((2-oxoindolin-6-yl)methyl)-2,7-diazaspiro[4.4]nonan-2-yl)pyrimidin-5-yl)oxy)-[1,1′-biphenyl]-4-carbonitrile], the EC50 in assay [1] (Homo sapiens, MV4-11, 72 h) was under 100 nM. This compound also showed an IC50 in assay [2] of under 100 nM.
The compound `CC(C)n1nccc1-c1cc(F)ccc1Oc1cncnc1N1CCC2(CCN(Cc3ccc4nn[nH]c4c3)C2)C1` (stereo not shown) [Example 198, 6-((7-(5-(4-fluoro-2-(1-isopropyl-1H-pyrazol-5-yl)phenoxy)pyrimidin-4-yl)-2,7-diazaspiro[4.4]nonan-2-yl)methyl)-1H-benzo[d][1,2,3] triazole] returned an EC50 in assay [1] (Homo sapiens, MV4-11, 72 h) of under 100 nM. Also, in assay [2], the IC50 is under 100 nM.
In the case of `N#Cc1ccc(-c2cc(F)cc(F)c2Oc2cncnc2N2CCC3(CCN(Cc4ccc5[nH]c(=O)[nH]c5c4)C3)C2)c(C2CC2)c1` (stereo not shown) [Example 199, 2-cyclopropyl-3′,5′-difluoro-2′-((4-(7-((2-oxo-2,3-dihydro-1H-benzo[d]imidazol-5-yl)methyl)-2,7-diazaspiro[4.4]nonan-2-yl)pyrimidin-5-yl)oxy)-[1,1′-biphenyl]-4-carbonitrile], the EC50 in assay [1] (72 h) is at least 1000 nM. The IC50 in assay [2] was under 100 nM.
`NC(=O)c1ccc2c(CN3CCC4(CCN(c5ncncc5Oc5ccc(F)cc5OCC5CC5)C4)C3)c[nH]c2c1` (stereo not shown) [Example 200, 3-((7-(5-(2-(cyclopropylmethoxy)-4-fluorophenoxy)pyrimidin-4-yl)-2,7-diazaspiro[4.4]nonan-2-yl)methyl)-1H-indole-6-carboxamide] gave an EC50 in assay [1] (Homo sapiens, MV4-11, 72 h) of 100 to 1000 nM. The compound also registered an IC50 in assay [2] of under 100 nM.
The compound `N#Cc1ccc2c(CN3CCC4(CCN(c5ncncc5Oc5ccc(F)cc5OCC5CC5)C4)C3)c[nH]c2c1` (stereo not shown) [Example 201, 3-((7-(5-(2-(cyclopropylmethoxy)-4-fluorophenoxy)pyrimidin-4-yl)-2,7-diazaspiro[4.4]nonan-2-yl)methyl)-1H-indole-6-carbonitrile] gave an EC50 in assay [1] (Homo sapiens, MV4-11, 72 h) of at least 1000 nM. Also, in assay [2], the IC50 was under 100 nM.
The compound `CC(C)N(C)C(=O)c1cc(F)ccc1Oc1cncnc1N1CCC2(CCN(Cc3ccc4c(c3)NC(=O)C4(C)C)C2)C1` (stereo not shown) [Example 202, 2-((4-(7-((3,3-dimethyl-2-oxoindolin-6-yl)methyl)-2,7-diazaspiro[4.4]nonan-2-yl)pyrimidin-5-yl)oxy)-5-fluoro-N-isopropyl-N-methylbenzamide] displayed an EC50 in assay [1] (Homo sapiens, MV4-11, 72 h) of 100 to 1000 nM. The compound also came in with an IC50 in assay [2] of under 100 nM.
For `N#Cc1ccc(CCN2CC3(C2)CN(c2ncncc2Oc2ccc(F)cc2-c2ccc(C#N)cc2C2CC2)C3)cc1` [Example 203, 2′-((4-(6-(4-cyanophenethyl)-2,6-diazaspiro[3.3]heptan-2-yl)pyrimidin-5-yl)oxy)-2-cyclopropyl-5′-fluoro-[1,1′-biphenyl]-4-carbonitrile] the same measures were at least 1000 nM and under 100 nM.
